Results taken from ChEMBL document CHEMBL1201862, “PubChem BioAssay data set” (2004).
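Exposure lasted 48 hours, with cells grown in 96-well plates and compounds tested at five concentrations. GI50 marks 50% less growth.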 Active and inactive are the calls of the source. Cut-off read from the data, not from the text of the source: active = GI50 up to about 1.1 µM and inactive = higher.

How the values were obtained:
Assay in all cases: growth of human tumour cells (NCI), 48 h
786-0 = test system: 786-0
A498 = test system: A498
A549 = test system: A549
ACHN = test system: ACHN
BT-549 = test system: BT-549
CAKI-1 = test system: CAKI-1
CCRF-CEM = test system: CCRF-CEM
COLO 205 = test system: COLO 205
DU-145 = test system: DU-145
EKVX = test system: EKVX
HCC 2998 = test system: HCC 2998
HCT-116 = test system: HCT-116
HCT-15 = test system: HCT-15
HL-60 = test system: HL-60
HOP-62 = test system: HOP-62
HOP-92 = test system: HOP-92
HT-29 = test system: HT-29
Hs-578T = test system: Hs-578T
IGROV-1 = test system: IGROV-1
K562 = test system: K562
KM12 = test system: KM12
LOX IMVI = test system: LOX IMVI
M14 = test system: M14
MCF7 = test system: MCF7
MDA-MB-231 = test system: MDA-MB-231
MDA-MB-435 = test system: MDA-MB-435
MDA-N = test system: MDA-N
MOLT-4 = test system: MOLT-4
Malme-3M = test system: Malme-3M
NCI-H226 = test system: NCI-H226
NCI-H23 = test system: NCI-H23
NCI-H460 = test system: NCI-H460
NCI-H522 = test system: NCI-H522
NCI/ADR-RES = test system: NCI/ADR-RES
OVCAR-3 = test system: OVCAR-3
OVCAR-4 = test system: OVCAR-4
OVCAR-5 = test system: OVCAR-5
OVCAR-8 = test system: OVCAR-8
PC-3 = test system: PC-3
RPMI-8226 = test system: RPMI-8226
RXF 393 = test system: RXF 393
SF-268 = test system: SF-268
SF-295 = test system: SF-295
SF-539 = test system: SF-539
SK-MEL-28 = test system: SK-MEL-28
SK-MEL-2 = test system: SK-MEL-2
SK-MEL-5 = test system: SK-MEL-5
SN12C = test system: SN12C
SNB-19 = test system: SNB-19
SNB-75 = test system: SNB-75
SR = test system: SR
SW-620 = test system: SW-620
T47D = test system: T47D
U-251 = test system: U-251
UACC-257 = test system: UACC-257
UACC-62 = test system: UACC-62
UO-31 = test system: UO-31
SK-OV-3 = test system: SK-OV-3
TK-10 = test system: TK-10

O=c1cc(-c2ccccc2)c2ccc(O)c(CN(CCCl)CCCl)c2o1 was tested, and the GI50 (786-0) was 18.5 µM (inactive), the GI50 (A498) was 19.1 µM (inactive) and the GI50 (A549) was 16.1 µM (inactive). The GI50 (ACHN) was 20.4 µM (inactive), the GI50 (BT-549) was 10.6 µM (inactive) and the GI50 (CAKI-1) was 15.5 µM (inactive). The GI50 (CCRF-CEM) was 3.07 µM (inactive), the GI50 (COLO 205) was 12.4 µM (inactive) and the GI50 (DU-145) was 33.6 µM (inactive). For the same molecule, the GI50 (EKVX) was 25.5 µM (inactive), the GI50 (HCC 2998) was 12.3 µM (inactive) and the GI50 (HCT-116) was 19.1 µM (inactive). The GI50 (HCT-15) was 22.1 µM, the GI50 (HL-60) was 13.4 µM (inactive) and the GI50 (HOP-62) was 17.2 µM (inactive). The GI50 (HOP-92) was 20.8 µM (inactive), the GI50 (HT-29) was 10.3 µM (inactive) and the GI50 (Hs-578T) was 24.9 µM (inactive). For the same molecule, the GI50 (IGROV-1) was 15.5 µM (inactive), the GI50 (K562) was 29 µM (inactive) and the GI50 (KM12) was 17.9 µM (inactive). For the same molecule, the GI50 (LOX IMVI) was 8.26 µM (inactive), the GI50 (M14) was 20.1 µM (inactive) and the GI50 (MCF7) was 17.2 µM (inactive). For the same molecule, the GI50 (MDA-MB-231) was 15.7 µM (inactive), the GI50 (MDA-MB-435) was 19.9 µM (inactive) and the GI50 (MDA-N) was 17.6 µM (inactive). For the same molecule, the GI50 (MOLT-4) was 5.75 µM (inactive), the GI50 (Malme-3M) was 21 µM (inactive) and the GI50 (NCI-H226) was 17.9 µM (inactive). The GI50 (NCI-H23) was 19.5 µM (inactive), the GI50 (NCI-H460) was 17.8 µM (inactive) and the GI50 (NCI-H522) was 14.7 µM (inactive). The GI50 (NCI/ADR-RES) was 32.3 µM (inactive), the GI50 (OVCAR-3) was 19.3 µM (inactive) and the GI50 (OVCAR-4) was 34.8 µM (inactive). The GI50 (OVCAR-5) was 17.8 µM (inactive), the GI50 (OVCAR-8) was 15.8 µM (inactive) and the GI50 (PC-3) was 17.8 µM (inactive). The GI50 (RPMI-8226) was 12.6 µM (inactive), the GI50 (RXF 393) was 14 µM (inactive) and the GI50 (SF-268) was 17.5 µM (inactive). For the same molecule, the GI50 (SF-295) was 11 µM (inactive), the GI50 (SF-539) was 20.3 µM (inactive) and the GI50 (SK-MEL-28) was 18.8 µM (inactive). For the same molecule, the GI50 (SK-MEL-2) was 22.8 µM (inactive), the GI50 (SK-MEL-5) was 16.9 µM (inactive) and the GI50 (SN12C) was 17.2 µM (inactive). For the same molecule, the GI50 (SNB-19) was 18.5 µM (inactive), the GI50 (SNB-75) was 15.7 µM (inactive) and the GI50 (SR) was 11.1 µM (inactive). The GI50 (SW-620) was 18.8 µM (inactive), the GI50 (T47D) was 23.4 µM (inactive) and the GI50 (U-251) was 22.1 µM (inactive). The GI50 (UACC-257) was 16.4 µM (inactive), the GI50 (UACC-62) was 16.9 µM (inactive) and the GI50 (UO-31) was 14.4 µM (inactive).

In the case of COC1(OC)C2(Cl)CCC1(Cl)C(OC(C)=O)C2 (stereo not given), the GI50 (786-0) is reported as > 100 µM (inactive), the GI50 (A498) is reported as > 100 µM (inactive) and the GI50 (A549) is reported as > 100 µM (inactive). For the same molecule, the GI50 (ACHN) was > 100 µM (inactive), the GI50 (BT-549) was > 100 µM (inactive) and the GI50 (CAKI-1) was > 100 µM (inactive). The GI50 (CCRF-CEM) was > 100 µM (inactive), the GI50 (COLO 205) was > 100 µM (inactive) and the GI50 (DU-145) was > 100 µM (inactive). The GI50 (EKVX) was > 100 µM (inactive), the GI50 (HCC 2998) was > 100 µM (inactive) and the GI50 (HCT-116) was > 100 µM (inactive). The GI50 (HCT-15) was greater than 100 µM, the GI50 (HOP-62) was > 100 µM (inactive) and the GI50 (HOP-92) was > 100 µM (inactive). For the same molecule, the GI50 (HT-29) was > 100 µM (inactive), the GI50 (Hs-578T) was > 100 µM (inactive) and the GI50 (IGROV-1) was > 100 µM (inactive). For the same molecule, the GI50 (K562) was > 100 µM (inactive), the GI50 (KM12) was > 100 µM (inactive) and the GI50 (LOX IMVI) was > 100 µM (inactive). The GI50 (M14) was > 100 µM (inactive), the GI50 (MCF7) was > 100 µM (inactive) and the GI50 (MDA-MB-231) was > 100 µM (inactive). For the same molecule, the GI50 (MDA-MB-435) was > 100 µM (inactive), the GI50 (MDA-N) was > 100 µM (inactive) and the GI50 (MOLT-4) was > 100 µM (inactive). For the same molecule, the GI50 (Malme-3M) was > 100 µM (inactive), the GI50 (NCI-H226) was > 100 µM (inactive) and the GI50 (NCI-H23) was > 100 µM (inactive). For the same molecule, the GI50 (NCI-H460) was > 100 µM (inactive), the GI50 (NCI-H522) was > 74.1 µM (inactive) and the GI50 (NCI/ADR-RES) was > 100 µM (inactive). For the same molecule, the GI50 (OVCAR-3) was > 100 µM (inactive), the GI50 (OVCAR-4) was > 100 µM (inactive) and the GI50 (OVCAR-5) was > 100 µM (inactive). For the same molecule, the GI50 (OVCAR-8) was > 100 µM (inactive), the GI50 (PC-3) was > 100 µM (inactive) and the GI50 (RPMI-8226) was > 100 µM (inactive). For the same molecule, the GI50 (RXF 393) was > 100 µM (inactive), the GI50 (SF-268) was > 100 µM (inactive) and the GI50 (SF-295) was > 100 µM (inactive). For the same molecule, the GI50 (SF-539) was > 100 µM (inactive), the GI50 (SK-MEL-28) was > 100 µM (inactive) and the GI50 (SK-MEL-2) was > 100 µM (inactive). For the same molecule, the GI50 (SK-MEL-5) was > 100 µM (inactive), the GI50 (SK-OV-3) was > 100 µM (inactive) and the GI50 (SN12C) was > 100 µM (inactive). The GI50 (SNB-19) was > 100 µM (inactive), the GI50 (SNB-75) was > 100 µM (inactive) and the GI50 (SR) was > 100 µM (inactive). The GI50 (SW-620) was > 100 µM (inactive), the GI50 (T47D) was > 100 µM (inactive) and the GI50 (TK-10) was > 100 µM (inactive). For the same molecule, the GI50 (U-251) was > 100 µM (inactive), the GI50 (UACC-257) was > 100 µM (inactive) and the GI50 (UACC-62) was > 90.2 µM (inactive). For the same molecule, the GI50 (UO-31) was > 100 µM (inactive).
